Reference: patent publication US9288993B2, “Copper resistant, fengycin-producing Bacillus mojavensis strain for controlling vegetable pathogens, its use and compositions containing it” (Szegedi Tudományegyetem, priority 2011, dated 2016)
Read-outs that look alike come from different tables or passages of the source.

Tests used:
Phytophthora infestans = settings: 100 ppm copper
plant pathogen fungi = experiment: Fengycin concentration of diluted culture inhibiting plant pathogen fungi; format: cell-based; settings: culture in glutaminic acid/glucose solution diluted 10-20 times

O=S(=O)([O-])[O-].[Cu+2] [copper, copper-sulphate]
growth of Phytophthora infestans strains (Phytophthora infestans): did not show growth anymore
growth of P. syringae strains (P. syringae; 200 ppm copper): all increased
growth of P. syringae strains (P. syringae; 400 ppm copper): none of them

fengycin
fengycin concentration which achieves a complete inhibition of the majority of the plant pathogen fungi (plant pathogen fungi): 10 to 12 mg/L
